# Test results: the supplement of paper PMC10331698
# ± gives the standard deviation of the averaged measurements.
# What was measured:
# [1] = compound: T1, C=CC(=O)OCC(F)(F)C(F)(F)C(F)(F)COC(=O)C=C [1H,1H,5H,5H-Perfluoro-1,5-pentanediol diacrylate]; assay: LOEC (log10 uM (lowest observed effect concentration))
# Experimental: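 BioMAP Diversity Plus panel in human primary cell co-cultures, 4 concentrations in duplicate blinded samples. Responses are log10 fold change versus DMSO control, processed with tcpl v2.1.0. A hit is called when responses at any concentration exceed the cutoff (the larger of 3*bmad or log10(1.2)); the lowest observed effect concentration (modl_ga, log10 uM) is reported for hits.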
# [2] = compound: O=C(O)C=CC(F)(C(F)(F)F)C(F)(F)F [3-(Perfluoroisopropyl)-2-propenoic acid]; assay: level (log10 ratio to DMSO vehicle control); higher = higher biomarker level / cell amount than vehicle control; details: in DMSO
# Experimental: (§1)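 BioMAP Diversity Plus panel of 12 human primary cell co-culture systems (3C, 4H, LPS, SAg, BT, BF4T, BE3C, CASM3C, HDF3CGF, KF3CT, MyoF, Mphg). Compounds were added 1 h before stimulation and left for 24 h (MyoF 48 h; BT 72 h for soluble read-outs or 6 d for IgG). Biomarkers were read by ELISA, cytotoxicity by SRB, PBMC viability and proliferation by Alamar Blue. Each well value was divided by the mean of 8 DMSO control wells on the same plate and log10 transformed; duplicate blinded samples were tested at 4 concentrations.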
# Hexafluoroamylene glycol = compound: OCC(F)(F)C(F)(F)C(F)(F)CO [Hexafluoroamylene glycol]; assay: as above; details: in DMSO
# Experimental: as §1
# [3] = compound: C=C(C)C(=O)OCCC(F)(F)C(F)(F)C(F)(F)C(F)(F)C(F)(F)C(F)(F)F [6:2 Fluorotelomer methacrylate]; assay: as above; details: in DMSO
# Experimental: as §1
# [4] = compound: O=C(O)C(F)(F)C(F)(F)C(F)(F)C(F)(F)C(F)(F)C(F)(F)C(F)(F)C(F)(F)C(F)(F)C(F)F [11-H-Perfluoroundecanoic acid]; assay: as above; details: in DMSO
# Experimental: as §1
# [5] = compound: NC(=O)C(F)(F)C(F)(F)C(F)(F)C(F)F; assay: as above; details: in DMSO
# Experimental: as §1
# [6] = compound: COC(=O)C(F)(F)C(F)(F)OC(F)(C(F)(F)F)C(F)(F)OC(F)=C(F)F [Methyl perfluoro(3-(1-ethenyloxypropan-2-yloxy)propanoate)]; assay: as above; details: in DMSO
# Experimental: as §1
# [7] = compound: NS(=O)(=O)C(F)(F)C(F)(F)C(F)(F)C(F)(F)C(F)(F)C(F)(F)F [Perfluorohexanesulfonamide]; assay: as above; details: in DMSO
# Experimental: as §1
# [8] = compound: FC(F)(F)C(F)(F)C(F)(F)C(F)(F)C(F)(F)C(F)(F)C(F)(F)I [1-Iodopentadecafluoroheptane]; assay: as above; details: in DMSO
# Experimental: as §1
# [9] = compound: T1, 1H,1H,5H,5H-Perfluoro-1,5-pentanediol diacrylate; assay: as above; details: 6700 nM; in DMSO
# Experimental: as §1
# [10] = compound: O=S(=O)(O)CCC(F)(F)C(F)(F)C(F)(F)C(F)(F)C(F)(F)C(F)(F)F [6:2 Fluorotelomer sulfonic acid]; assay: as above; details: in DMSO
# Experimental: as §1
# [11] = compound: O=S(=O)(Cl)C(F)(F)C(F)(F)C(F)(F)C(F)(F)C(F)(F)C(F)(F)C(F)(F)C(F)(F)F [Perfluoro-1-octanesulfonyl chloride]; assay: as above; details: in DMSO
# Experimental: as §1
# Octafluoroadipamide = compound: NC(=O)C(F)(F)C(F)(F)C(F)(F)C(F)(F)C(N)=O [Octafluoroadipamide]; assay: as above; details: in DMSO
# Experimental: as §1
# Nonafluoropentanamide = compound: NC(=O)C(F)(F)C(F)(F)C(F)(F)C(F)(F)F [Nonafluoropentanamide]; assay: as above; details: in DMSO
# Experimental: as §1
# Heptafluorobutyl iodide = compound: FC(F)(F)C(F)(F)C(F)(F)CI [Heptafluorobutyl iodide]; assay: as above; details: in DMSO
# Experimental: as §1
# [12] = compound: FC(F)(F)C(F)(F)C(F)(F)C(F)(F)C(F)(F)C(F)(F)CC1CO1 [3-(Perfluorohexyl)-1,2-epoxypropane]; assay: as above; details: in DMSO
# Experimental: as §1
# [13] = compound: FC(F)(F)C(F)(F)C(F)(F)CC1CO1 [1H,1H-Heptafluorobutyl epoxide]; assay: as above; details: in DMSO
# Experimental: as §1
# [14] = compound: O=S(=O)(F)C(F)(F)C(F)(F)C(F)(F)C(F)(F)C(F)(F)C(F)(F)C(F)(F)C(F)(F)F [Perfluorooctanesulfonyl fluoride]; assay: as above; details: in DMSO
# Experimental: as §1
# [15] = compound: O=S(=O)(O)C(F)(F)C(F)(F)C(F)(F)C(F)(F)C(F)(F)C(F)(F)C(F)(F)C(F)(F)C(F)(F)C(F)(F)F [Sodium perfluorodecanesulfonate]; assay: as above; details: in DMSO
# Experimental: as §1
# [16] = compound: FC(F)(F)C(F)(F)CNCC(F)(F)C(F)(F)F [Bis(1H,1H-perfluoropropyl)amine]; assay: as above; details: in DMSO
# Experimental: as §1
test system,measurement,setting,value
hDFCGF TIMP1 down,LOEC (log10 uM),[1],0.573 ± 0.39
lMphg:CCL2/MCP-1,level (log10),[2]; 6700 nM,-0.023 ± 0.014
same,level (log10),[2]; 20000 nM,-0.0275 ± 0.011
same,level (log10),[2]; 60000 nM,0.006 ± 0.03
same,level (log10),Hexafluoroamylene glycol; 6700 nM,-0.001 ± 0.03
same,level (log10),Hexafluoroamylene glycol; 20000 nM,-0.0115 ± 0.0064
same,level (log10),Hexafluoroamylene glycol; 60000 nM,-0.007 ± 0.023
same,level (log10),[3]; 6700 nM,-0.005 ± 0.0085
same,level (log10),[3]; 20000 nM,-0.009 ± 0.0014
same,level (log10),[3]; 60000 nM,0.004 ± 0.0071
same,level (log10),[4]; 6700 nM,-0.0145 ± 0.025
same,level (log10),[4]; 20000 nM,0.0085 ± 0.028
same,level (log10),[5]; 6700 nM,0.004
same,level (log10),[5]; 20000 nM,-0.0065 ± 0.012
same,level (log10),[5]; 60000 nM,0.0255 ± 0.018
same,level (log10),[6]; 6700 nM,-0.0045 ± 0.0064
same,level (log10),[6]; 20000 nM,0.0335 ± 0.044
same,level (log10),[7]; 6700 nM,-0.018 ± 0.054
same,level (log10),[7]; 20000 nM,-0.053 ± 0.017
same,level (log10),[7]; 60000 nM,-0.123 ± 0.054
same,level (log10),[8]; 6700 nM,0.009 ± 0.0085
same,level (log10),[8]; 20000 nM,0.018 ± 0.02
same,level (log10),[9],-0.048 ± 0.0085
same,level (log10),[10]; 6700 nM,-0.0195 ± 0.012
same,level (log10),[10]; 20000 nM,-0.005 ± 0.0099
same,level (log10),[10]; 60000 nM,0.027 ± 0.025
same,level (log10),[11]; 6700 nM,0.0175 ± 0.0092
same,level (log10),[11]; 20000 nM,0.0255 ± 0.0092
same,level (log10),[11]; 60000 nM,0.032 ± 0.0028
same,level (log10),Octafluoroadipamide; 6700 nM,0.0185 ± 0.016
same,level (log10),Octafluoroadipamide; 20000 nM,0.0035 ± 0.0021
same,level (log10),Octafluoroadipamide; 60000 nM,0.005 ± 0.025
same,level (log10),Nonafluoropentanamide; 6700 nM,0.0005 ± 0.0021
same,level (log10),Nonafluoropentanamide; 20000 nM,0.0025 ± 0.049
same,level (log10),Nonafluoropentanamide; 60000 nM,0.0225 ± 0.037
same,level (log10),Heptafluorobutyl iodide; 6700 nM,0.0255 ± 0.00071
same,level (log10),Heptafluorobutyl iodide; 20000 nM,-0.006 ± 0.0028
same,level (log10),Heptafluorobutyl iodide; 60000 nM,0.0135 ± 0.0021
same,level (log10),[12]; 6700 nM,-0.009 ± 0.031
same,level (log10),[12]; 20000 nM,-0.0255 ± 0.026
same,level (log10),[12]; 60000 nM,0.0025 ± 0.044
same,level (log10),[13]; 6700 nM,-0.0075 ± 0.011
same,level (log10),[13]; 20000 nM,-0.021 ± 0.021
same,level (log10),[13]; 60000 nM,0.0105 ± 0.026
same,level (log10),[14]; 6700 nM,-0.004 ± 0.023
same,level (log10),[14]; 20000 nM,-0.0245 ± 0.023
same,level (log10),[14]; 60000 nM,-0.0165 ± 0.0021
same,level (log10),[15]; 1500 nM,0.022 ± 0.0028
same,level (log10),[15]; 4400 nM,-0.0035 ± 0.013
same,level (log10),[15]; 13000 nM,0.0135 ± 0.005
same,level (log10),[15]; 40000 nM,0.0225 ± 0.026
same,level (log10),[16]; 6700 nM,0.0015 ± 0.0035
same,level (log10),[16]; 20000 nM,0.001 ± 0.013
same,level (log10),[16]; 60000 nM,-0.02 ± 0.042
